Results reported in ChEMBL document CHEMBL1201862, “PubChem BioAssay data set” (2004).
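Step 1: Grow cells in 96-well plates. Step 2: Expose to compound for 48 hours at 5 concentrations. Step 3: Interpolate endpoints linearly; if unreached, use highest concentration. GI50 marks 50% less growth.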 Activity calls are given as the source filed them. Cut-off read from the data, not from the text of the source: active = GI50 up to about 1.1 µM and inactive = higher.

Assays:
Test in all cases: inhibition of tumour cell growth, NCI panel, 48 h
[1] = test system: ACHN
[2] = test system: HT-29
[3] = test system: HCT-116
[4] = test system: SK-OV-3
[5] = test system: NCI-H226
[6] = test system: A549
[7] = test system: SF-295
[8] = test system: SN12C
[9] = test system: TK-10
[10] = test system: SK-MEL-28
[11] = test system: M14
[12] = test system: SNB-75
[13] = test system: SR
[14] = test system: RPMI-8226
[15] = test system: NCI-H522
[16] = test system: COLO 205
[17] = test system: NCI/ADR-RES
[18] = test system: T47D

Measured: GI50

Cc1cc2c(cn1)C(=O)OCC2
inactive: [1] > 100 µM | [2] > 100 µM | [3] > 100 µM | [4] > 100 µM | [5] > 100 µM | [6] > 100 µM | [7] > 100 µM | [8] > 100 µM | [9] > 100 µM | [10] > 100 µM | [11] > 100 µM | [12] > 100 µM | [13] > 100 µM | [14] > 100 µM

CC(C)N(C(=O)C12C3C4C5(C(=O)O)C(C1C35I)C42C(=O)O)C(C)C (stereo not given)
inactive: [1] > 100 µM | [2] > 100 µM | [3] > 100 µM | [4] > 100 µM | [5] > 100 µM | [6] > 100 µM | [7] > 100 µM | [8] > 100 µM | [9] > 100 µM | [15] > 100 µM | [10] > 100 µM | [11] > 100 µM | [12] 29.1 µM | [13] > 100 µM | [16] > 100 µM

CO/C(=N\N=C\c1cc(OC)ccc1OC)c1ccncc1
inactive: [1] > 10 µM | [3] > 10 µM | [4] > 10 µM | [5] > 10 µM | [6] > 10 µM | [7] > 10 µM | [17] > 10 µM | [8] > 10 µM | [9] > 10 µM | [18] > 10 µM | [10] > 10 µM | [12] 3.68 µM | [13] > 10 µM | [14] > 10 µM | [16] > 10 µM

COc1cccc(/C=N/[N-]C(=S)Nc2ccccc2)c1[O-].O.[Zn+2]
inactive: [1] 39.8 µM | [2] 72.4 µM | [4] 44.4 µM | [5] 37.8 µM | [6] 34.1 µM | [7] 76.7 µM | [8] > 100 µM | [9] > 100 µM | [15] 19.7 µM | [10] > 100 µM | [11] 44.5 µM | [12] 43.7 µM | [14] 66.8 µM

COc1cc(-c2oc3c(OC)c(O)c(OC)c(O)c3c(=O)c2OC)cc(O)c1OC
inactive: [1] 50.6 µM | [2] 30.8 µM | [3] 36.1 µM | [4] 16.4 µM | [5] > 100 µM | [6] 46.9 µM | [7] 15.8 µM | [17] 17.6 µM | [8] 34.4 µM | [9] 39.2 µM | [18] 32.8 µM | [15] 24.3 µM | [10] 47.5 µM | [11] 38.3 µM | [12] 11 µM | [14] 23.8 µM | [16] 67.8 µM

C=CCn1c(=O)n(CC=C)c(=O)n(CC=C)c1=O
inactive: [1] > 100 µM | [3] > 100 µM | [4] > 100 µM | [6] > 100 µM | [7] > 100 µM | [8] > 100 µM | [9] > 100 µM | [15] > 100 µM | [10] > 100 µM | [11] > 100 µM | [14] > 100 µM | [16] > 100 µM

CN(C)C(=S)/N=c1\ss/c(=N\S(=O)(=O)c2ccccc2)n1N(C)C
inactive: [1] > 100 µM | [3] 75 µM | [4] > 100 µM | [5] > 100 µM | [6] > 100 µM | [8] > 100 µM | [9] > 100 µM | [15] 4.92 µM | [10] > 100 µM | [11] > 100 µM | [12] > 100 µM | [13] 41.2 µM | [14] 62.7 µM | [16] > 100 µM

COC(=O)[C@H]1C=C[C@@H](C)n2c(=O)c3cc4ccccc4cc3c(=O)n21
inactive: [1] > 100 µM | [3] > 100 µM | [4] > 100 µM | [5] > 100 µM | [6] > 100 µM | [7] > 100 µM | [8] > 100 µM | [9] > 100 µM | [15] > 100 µM | [10] > 100 µM | [11] > 100 µM | [12] 43.6 µM | [13] > 100 µM | [14] > 100 µM | [16] > 100 µM

COC(=O)C1=C(c2cc(OC)c(OC)c(OC)c2)OC(c2ccc(OC)c(OC)c2)C1 (stereo not given)
inactive: [1] 51.2 µM | [2] 38.7 µM | [3] 43.8 µM | [4] 40.5 µM | [5] 96.6 µM | [6] 46.8 µM | [7] 35.6 µM | [8] 51.6 µM | [9] 54.3 µM | [10] 79.8 µM | [11] 61.1 µM | [12] 66.1 µM | [13] 51.6 µM | [14] 75.2 µM | [16] 19.1 µM
